In US20250120967A1, “TYROSINE KINASES INHIBITORS AND USES THEREOF” (GREAT NOVEL THERAPEUTICS BIOTECH & MEDICALS CORPORATION, priority 2023, published 2025):

How the values were obtained:
Test in all cases: NCI-60 screen (SRB)
Format in all cases: cell-based
SK-MEL-28 = conditions: Homo sapiens; SK-MEL-28, Melanoma
Procedure: (§1) The human tumor cell lines of the cancer screening panel are grown in RPMI 1640 medium containing 5% fetal bovine serum and 2 mM L-glutamine. For a typical screening experiment, cells are inoculated into 96 well microtiter plates in 100 μL at plating densities ranging from 5,000 to 40,000 cells/well depending on the doubling time of individual cell lines. After cell inoculation, the microtiter plates are incubated at 37° C., 5% CO2, 95% air and 100% relative humidity for 24 h prior to addition of experimental drugs. After 24 h, two plates of each cell line are fixed in situ with TCA, to represent a measurement of the cell population for each cell line at the time of drug addition (Tz). Experimental drugs are solubilized in dimethyl sulfoxide at 400-fold the desired final maximum test concentration and stored frozen prior to use. At the time of drug addition, an aliquot of frozen concentrate is thawed and diluted to twice the desired final maximum test concentration with complete medium containing 50 µg/ml gentamicin. An additional four, 10-fold or M log serial dilutions are made to provide a total of five drug concentrations plus control. Aliquots of 100 μl of these different drug dilutions are added to the appropriate microtiter wells already containing 100 μl of medium, resulting in the required final drug concentrations. Following drug addition, the plates are incubated for an additional 48 h at 37° C., 5% CO2, 95% air, and 100% relative humidity. For adherent cells, the assay is terminated by the addition of cold TCA. Cells are fixed in situ by the gentle addition of 50 μl of cold 50% (w/v) TCA (final concentration, 10% TCA) and incubated for 60 minutes at 4° C. The supernatant is discarded, and the plates are washed five times with tap water and air dried. Sulforhodamine B (SRB) solution (100 l) at 0.4% (w/v) in 1% acetic acid is added to each well, and plates are incubated for 10 minutes at room temperature. After staining, unbound dye is removed by washing five times with 1% acetic acid and the plates are air dried. Bound stain is subsequently solubilized with 10 mM trizma base, and the absorbance is read on an automated plate reader at a wavelength of 515 nm. For suspension cells, the methodology is the same except that the assay is terminated by fixing settled cells at the bottom of the wells by gently adding 50 μl of 80% TCA (final concentration, 16% TCA).

MDA-MB-468 = conditions: Homo sapiens; MDA-MB-468, Breast Cancer
Procedure: as §1

HCT-15 = conditions: Homo sapiens; HCT-15, Colon Cancer
Procedure: as §1

MDA-MB-435 = conditions: Homo sapiens; MDA-MB-435, Melanoma
Procedure: as §1

MDA-MB-231/ATCC = conditions: Homo sapiens, Breast Cancer
Procedure: as §1

UO-31 = conditions: Homo sapiens; UO-31, Renal Cancer
Procedure: as §1

NCI-H460 = conditions: Homo sapiens; NCI-H460, Non-Small Cell Lung Cancer
Procedure: as §1

HS 578T = conditions: Homo sapiens, Breast Cancer
Procedure: as §1

SR = conditions: Homo sapiens, Leukemia
Procedure: as §1

OVCAR-3 = conditions: Homo sapiens; OVCAR-3, Ovarian Cancer
Procedure: as §1

ACHN = conditions: Homo sapiens, Renal Cancer
Procedure: as §1

SK-MEL-2 = conditions: Homo sapiens; SK-MEL-2, Melanoma
Procedure: as §1

HOP-92 = conditions: Homo sapiens; HOP-92, Non-Small Cell Lung Cancer
Procedure: as §1

HCT-116 = conditions: Homo sapiens; HCT-116, Colon Cancer
Procedure: as §1

SK-MEL-5 = conditions: Homo sapiens; SK-MEL-5, Melanoma
Procedure: as §1

M14 = conditions: Homo sapiens; M14, Melanoma
Procedure: as §1

MALME-3M = conditions: Homo sapiens, Melanoma
Procedure: as §1

RXF 393 = conditions: Homo sapiens; RXF 393, Renal Cancer
Procedure: as §1

SF-295 = conditions: Homo sapiens; SF-295, CNS Cancer
Procedure: as §1

SW-620 = conditions: Homo sapiens; SW-620, Colon Cancer
Procedure: as §1

SNB-19 = conditions: Homo sapiens; SNB-19, CNS Cancer
Procedure: as §1

SN12C = conditions: Homo sapiens, Renal Cancer
Procedure: as §1

T-47D = conditions: Homo sapiens, T47D, Breast Cancer
Procedure: as §1

KM12 = conditions: Homo sapiens; KM12, Colon Cancer
Procedure: as §1

UACC-62 = conditions: Homo sapiens; UACC-62, Melanoma
Procedure: as §1

MOLT-4 = conditions: Homo sapiens; MOLT-4, Leukemia
Procedure: as §1

BT-549 = conditions: Homo sapiens; BT-549, Breast Cancer
Procedure: as §1

COLO 205 = conditions: Homo sapiens; COLO 205, Colon Cancer
Procedure: as §1

PC-3 = conditions: Homo sapiens; PC-3, Prostate Cancer
Procedure: as §1

SMILES	GI50 (SK-MEL-28) [nM]	GI50 (MDA-MB-468) [nM]	GI50 (HCT-15) [nM]	GI50 (MDA-MB-435) [nM]	GI50 (MDA-MB-231/ATCC) [nM]	GI50 (UO-31) [nM]	GI50 (NCI-H460) [nM]	GI50 (HS 578T) [nM]	GI50 (SR) [nM]	GI50 (OVCAR-3) [nM]	GI50 (ACHN) [nM]	GI50 (SK-MEL-2) [nM]	GI50 (HOP-92) [nM]	GI50 (HCT-116) [nM]	GI50 (SK-MEL-5) [nM]	GI50 (M14) [nM]	GI50 (MALME-3M) [nM]	GI50 (RXF 393) [nM]	GI50 (SF-295) [nM]	GI50 (SW-620) [nM]	other results
COc1cc2nccc(Oc3ccc(NC(=O)C4(C(=O)Nc5ccc(F)cc5)CC4)cc3F)c2cc1Oc1ccc(N)cc1F [Cbo-23]	463	1120	315	363	981	316	457	148	93.8	829	292	1360	< 10	592	1380	459	298	103	66.9	449	GI50 (SNB-19): 3130 nM; GI50 (SN12C): 199 nM; GI50 (T-47D): 617 nM; GI50 (KM12): < 10 nM; GI50 (UACC-62): 112 nM; GI50 (MOLT-4): 1230 nM; GI50 (BT-549): 2270 nM; GI50 (COLO 205): 283 nM; GI50 (PC-3): 1600 nM
COc1cc2nccc(Oc3ccc(NC(=O)C4(NC(=O)c5ccc(F)cc5)CC4)cc3F)c2cc1Oc1ccc(N)cc1F [Cbo-10]	1810	1730	2410	737	4430	1810	1300	5320	345	> 100000	683	> 100000	141	2630	6970	1490	313	> 100000	304	661	GI50 (SNB-19): > 100000 nM; GI50 (SN12C): 111 nM; GI50 (T-47D): 1650 nM; GI50 (KM12): 130 nM; GI50 (UACC-62): 915 nM; GI50 (MOLT-4): 777 nM; GI50 (BT-549): 2410 nM; GI50 (COLO 205): 931 nM; GI50 (PC-3): > 100000 nM
COc1cc2nccc(Oc3ccc(NC(=O)C4(NC(=O)c5ccc(F)cc5)CC4)cc3F)c2cc1OC [Cbo-02, N-(1-((4-((6,7-diMethoxyquinolin-4-yl)oxy)-3-fluorophenyl)carbamoyl)cyclopropyl)-4-fluorobenzamide]	1610	1720	2980	1890	1740	2590	2750	2540	3330	2400	2140	6150	1260	1520	4010	1910	1740	2050	2310	1630	GI50 (SNB-19): 3520 nM; GI50 (SN12C): 1210 nM; GI50 (T-47D): 2120 nM; GI50 (KM12): 2000 nM; GI50 (UACC-62): 1840 nM; GI50 (MOLT-4): 5040 nM; GI50 (BT-549): 1430 nM; GI50 (COLO 205): 1750 nM; GI50 (PC-3): 3940 nM
